Assays:
[1] = system: forced swim mice; assay: Forced swim test in mice; assay type: in vivo, ICR mice; conditions: for Immobility time: last 4 min of 6 min
Description: Mail ICR mice (SPF grade) weighing 18-22 g were placed in a glass jar (diameter 10 cm, and height 20 cm) with water 10 cm in depth and a temperature of 25° C., observed for 6 min, and the accumulated immobility time of mice (i.e., the time that the animal has no motion or a slight motion in its hind limbs, but maintains body floated without motion) during the last 4 min was recorded. The mice were administrated with the compound to be tested and Duloxetine as the positive control drug via intraperitoneal injection at 30 min before the test or via intragastric administration at 60 min before the test.
In the forced swim model of mice, the antidepressant effect was evaluated to by observing the immobility time of the forced swim mice, and the shorter the immobility time, the stronger the antidepressant effect.

[2] = system: tail suspended mice; assay: Tail suspension test in mice; assay type: in vivo, Male ICR mice; conditions: 30 min before test, last 4 min of 6 min
Excerpt: Male ICR mice (SPF grade) weighing 18-22 g each was suspended by […] separately at 1 cm from the end of the tail with a clamp attached to a rope at the center of top plate of a 25×25×25 cm tail suspension box, and the head is away from the box bottom by 4-5 cm. […] The results of antidepressant effects of the target compounds administrated via intraperitoneal injection as determined by the tail suspension test in mice are given in Table 1. In the tail-suspended model of mice, the antidepressant effect was evaluated by observing the immobility time of the tail-suspended mice, and the shorter the immobility time, the stronger the antidepressant effect.

[3] = system: tail suspended mice; assay: Tail suspension test in mice; assay type: in vivo, Male ICR mice; conditions: for Immobility time: last 4 min of 6 min
[4] = 2.5 mg/kg i.p., 30 min before test
[5] = 5 mg/kg i.p., 30 min before test
[6] = 10 mg/kg i.p., 30 min before test
[7] = 20 mg/kg i.p., 30 min before test
[8] = 10 mg/kg i.g., 60 min before test
[9] = 5 mg/kg i.g., 60 min before test
[10] = 20 mg/kg i.g., 60 min before test

melting point [°C] | Structure (SMILES) | Immobility time [1, 4] [s] | Immobility time [1, 5] [s] | Immobility time [1, 6] [s] | Immobility time [1, 7] [s] | Immobility time ([2]; 2.5 mg/kg i.p.) [s] | Immobility time ([2]; 5 mg/kg i.p.) [s] | Immobility time ([2]; 10 mg/kg i.p.) [s] | Immobility time ([2]; 20 mg/kg i.p.) [s] | also measured
97 to 101 | CN(C)CCC(Oc1cccc2c1OCO2)c1ccco1.O=C(O)C(=O)O (stereo not shown) [Compound I6, N,N-dimethyl-[3-(benzo[1,3]dioxolan-4-yl-oxy)-3-(furan-2-yl)]-propylamine.oxalate] | 92.4 ± 39.2 | 96.5 ± 43.3 | 108.2 ± 46.7 | 61.2 ± 44.5 | 51.2 ± 34.3 | 53.9 ± 46.9 | 22.5 ± 28.1 | 11.9 ± 16.8 | 
85 to 88 | CN(C)CCC(Oc1cccc2c1OCO2)c1cccs1.O=C(O)C(=O)O (stereo not shown) [Compound I1, N,N-dimethyl-3-[(benzo[1,3]dioxolan-4-yl)-oxy]-3-(thiophen-2-yl)-propylamine.oxalate] | 148.7 ± 40.3 | 86.7 ± 44.7 | 54.6 ± 44.0 | 18.6 ± 15.7 | 38.2 ± 32.5 | 20.2 ± 17.1 | 6.2 ± 7.4 | 2.0 ± 6.3 | 
 | CNCC[C@H](Oc1cccc2ccccc12)c1cccs1 [Duloxetine, reference compound] |  |  |  | 96.7 to 135.4 |  |  |  |  | Immobility time ([1]; 40 mg/kg i.g., 60 min before test): 60.5 ± 44.1 s; Immobility time [3, 8]: 81.0 ± 44.7 s; Immobility time [3, 6]: 35.9 to 49.2 s
120 to 123 | CNCCC(Oc1cccc2c1OCO2)c1cccs1.O=C(O)C(=O)O (stereo not shown) [Compound I2] | 113.6 ± 47.4 | 119.4 ± 47.0 | 86.1 ± 36.5 | 43.1 ± 37.1 | 35.0 ± 30.0 | 20.8 ± 32.1 | 1.9 ± 4.0 | 2.5 ± 4.1 | Immobility time [1, 9]: 104.1 ± 39.7 s; Immobility time [1, 8]: 83.7 ± 34.2 s; Immobility time [1, 10]: 60.1 ± 33.8 s; antidepressant effect compared with Duloxetine (in words) ([1]; i.g., I2 20 mg/kg vs Duloxetine 40 mg/kg): comparable to that of Duloxetine at the dose of 40 mg/kg; effect on immobility time (in words) ([1]; intragastric administration, Table 4): significantly shorten the immobility time; Immobility time [3, 9]: 66.1 ± 44.9 s; Immobility time [3, 8]: 51.8 ± 36.0 s; Immobility time [3, 10]: 22.0 ± 16.9 s; effect compared with duloxetine (in words) ([3]; i.g., I2 5 mg/kg vs duloxetine 10 mg/kg): remarkably greater than that of duloxetine at the dose of 10 mg/kg; effect on immobility time (in words) ([3]; intragastric administration, Table 2): significantly shorten the immobility time
89 to 92 | CN(C)CCC(Oc1cccc2c1OCCO2)c1cccs1.O=C(O)C(=O)O (stereo not shown) |  |  |  |  |  |  |  |  | 
105 to 108 | O=C(O)C(=O)O.c1csc(C(CCN2CCCC2)Oc2cccc3c2OCO3)c1 (stereo not shown) |  |  |  |  |  |  |  |  | 
128 to 131 | CNCCC(Oc1cccc2c1OCCO2)c1cccs1.O=C(O)C(=O)O (stereo not shown) |  |  |  |  |  |  |  |  | 
130 to 133 | CNCCC(Oc1cccc2c1OCO2)c1ccco1.O=C(O)C(=O)O (stereo not shown) [Compound I7, N-methyl-[3-(benzo[1,3]dioxolan-4-yl-oxy)-3-(furan-2-yl)]propylamine.oxalate] | 94.3 ± 55.3 | 78.9 ± 43.1 | 70.9 ± 33.0 | 28.4 ± 35.8 | 30.7 ± 44.1 | 21.9 ± 21.5 | 33.3 ± 31.2 | 0.3 ± 0.95 | 
118 to 120 | O=C(O)C(=O)O.c1csc(C(CCN2CCCCC2)Oc2cccc3c2OCO3)c1 (stereo not shown) |  |  |  |  |  |  |  |  | 
101 to 103 | CN(C)CCC(Oc1cccc2c1OCCO2)c1ccco1.O=C(O)C(=O)O (stereo not shown) |  |  |  |  |  |  |  |  | 

From patent publication US8318772B2, “Amine compounds and medical uses thereof” (Institute of Pharmacology and Toxicology Academy of …, priority 2008, dated 2012)
